Test system: wild type C57BL6 mice
Assay: Prepulse inhibition (PPI) of the acoustic startle response, control experiment
Format: in vivo
Settings: wild type C57BL6 mice injected with MK-801 1 mg/kg; same PPI protocol; data not shown
Procedure: Prepulse inhibition (PPI) of the acoustic startle response. Prepulse inhibition (PPI) of the acoustic startle response was measured as described previously with some minor modifications (E. S. Emamian et al., 2004b). Adult homozygous mutant mice and their wild-type littermates were housed individually for 2 weeks prior to testing. Testing was conducted in a SR-Lab system (San Diego Instruments). Response amplitude was calculated as the maximum response level occurred during the 100 ms recording. Because animals can habituate to the prepulse, and to the startle stimulus, the number of trials was kept to minimum. Immediately after being placed in the chamber, the animal was allowed to acclimate for 5 min which background noise (86 dB) continually present. The animal then received 10 sets of the following 5 types of trials, distributed pseudo-randomly, and separated by 15 sec inter-trial intervals: Trial 1: 40 ms, 120 dB noise burst alone; Trial 2-4: 120 dB startle stimuli preceded 100 ms by one of the three 20 ms prepulses: 90 dB, 94 dB or 98 dB; Trial 5: no-stimulus/background noise alone (86 dB). […] Data was analyzed using ANOVA with repeated measures.

C[C@]12N[C@H](Cc3ccccc31)c1ccccc12 [MK-801]
Prepulse inhibition (PPI) of the acoustic startle response: significant decrease in PPI

— patent US20110072525A1, “COMPOSITIONS AND METHODS FOR THE TREATMENT OF PSYCHIATRIC AND NEUROLOGICAL DISORDERS” (priority 2009, published 2011)
